Experiments:
[1] = test system: MCh bronchoconstrictor response; assay: Rat Einthoven assay (bronchoprotection, inhaled dosing); format: in vivo; settings: inhalation; for ID50 (bronchoprotection): 1.5 hrs post-dose
Procedure: All test compounds are diluted in sterile water and are dosed via the inhalation route (IH). The rats (Sprague-Dawley, male, 250-350 g) are exposed to the aerosol generated from an LC Star Nebulizer Set and driven by a mixture of gases (5% CO2/95% atmospheric air). Each test compound solution is nebulized over a 10 minute time period in a pie shaped dosing chamber capable of holding six rats. At predetermined time points after inhalation of compound, the Einthoven assay is performed.
Thirty minutes prior to the start of pulmonary evaluation, the animals are anesthetized with inactin (thiobutabarbital, 120 mg/kg IP). The jugular vein is catheterized with saline filled polyethylene catheters (PE-50) and used to infuse MCh. The trachea is then dissected and cannulated with a 14G needle and used for rat ventilation during pulmonary evaluation. Once surgery is complete, rats are ventilated using a piston respirator set at a stroke volume of 1 ml/100 g body weight but not exceeding 2.5 ml volume, and at a rate of 90 strokes per minute.
The changes in pressure that occur with each breath are measured. Baseline values are collected for at least 2.5 minutes then rats are challenged non-cumulatively with 2-fold incremental increases of the bronchoconstrictor MCh (5, 10, 20, 40 and 80 μg/ml). The MCh is infused for 2.5 minutes from a syringe pump at a rate of 2 mL/kg/min. The animals are euthanized upon completion of the studies.
Changes in ventilation pressure (cm H2O) in treated animals are expressed as % inhibition of MCh response relative to control animals.
Standard muscarinic antagonists were evaluated in the rat Einthoven assay 1.5 hrs post-dose.
Standards tiotropium and ipratropium were also evaluated 24 hr and/or 6 hr post-dose in the rat Einthoven assay. […] The observed loss of activity at this time point (6 hr) is consistent with its relatively short duration of action in the clinic.

[2] = test system: pilocarpine-induced salivation; assay: Rat antisialagogue assay; format: in vivo; settings: evaluated at 1, 6 and 24 hr post-dose
Procedure: Rats (Sprague-Dawley, male, 250-350 g) are dosed, anesthetized and cannulated as described for Assay 3. At predetermined time points and after surgery, animals are placed on their dorsal side at a 20° incline with their head in a downward slope. A pre-weighed gauze pad is inserted in the animal's mouth and the muscarinic agonist pilocarpine (PILO) (3 mg/kg, iv.) is administered. Saliva produced during 10 minutes post-PILO is measured gravimetrically by determining the weight of the gauze pad before and after PILO. Antisialagogue effects are expressed as % inhibition of salivation relative to control animals.
The rat antisialagogue assay was developed to assess systemic exposure and calculate the lung selectivity index (LSI) of test compounds. The standard, tiotropium, was evaluated in this model at 1, 6, and 24 hr post-dose. […] This finding is consistent with the peak effects observed in the Einthoven assay. This model is a modified version of the procedure described in Rechter, “Estimation of anticholinergic drug effects in mice by antagonism against pilocarpine-induced salivation” Ata Pharmacol Toxicol 24:243-254 […]. The mean weight of saliva in vehicle-treated animals, at each pre-treatment time, is calculated and used to compute % inhibition of salivation, at the corresponding pre-treatment time, at each dose. […]

SMILES | ID50 (bronchoprotection) [1] | fold less potent 6-hr post-dose compared to 1.5 hr potency ([1]; 10 and 30 μg/ml, 6 hr vs 1.5 hr) | time post dose of greatest potency at inhibiting pilocarpine-induced salivation [2] | 6 hr versus 24 hr potency values [1] | fold more potent at 6 hr and 24 hr compared to 1.5 hr potency ([1]; 6 hr and 24 hr vs 1.5 hr) | time of peak bronchoprotection post-dose ([1]; slow onset of effect)
C[N+]1(C)CCC(OC(=O)C(O)(c2ccccc2)C2CCCC2)C1 (centres unmarked) [glycopyrrolate] | 15 µg/mL | – | – | – | – | –
CC(C)[N+]1(C)[C@@H]2CC[C@H]1C[C@@H](OC(=O)C(CO)c1ccccc1)C2 (some centres unmarked) [ipratropium] | 4.4 µg/mL | about 3 fold | – | – | – | –
C[N+]1(C)[C@@H]2C[C@@H](OC(=O)C(O)(c3cccs3)c3cccs3)C[C@H]1[C@@H]1O[C@@H]12 [tiotropium] | 6 µg/mL | – | 6 h | not significantly different from each other | about 2 fold | 6 h
